According to patent US20140155384A1, “COMPOUNDS AND METHODS OF TREATING DIABETES” (Medivation Technologies, Inc., priority 2011, published 2014):

Columns and labels:
[1] = target: T1, human recombinant adrenergic α1D receptor (Homo sapiens, UniProt P25100); assay: Radioligand binding, adrenergic α1D receptor ([3H]Prazosin); conditions: 0.1 μM compound; HEK-293 cells; 0.6 nM [3H]Prazosin; read-out: Percentage inhibition of ligand binding, Adrenergic α1D
T1 construct: expressed in transfected cells; host or cells: HEK-293
T1 sequence (P25100 1-572): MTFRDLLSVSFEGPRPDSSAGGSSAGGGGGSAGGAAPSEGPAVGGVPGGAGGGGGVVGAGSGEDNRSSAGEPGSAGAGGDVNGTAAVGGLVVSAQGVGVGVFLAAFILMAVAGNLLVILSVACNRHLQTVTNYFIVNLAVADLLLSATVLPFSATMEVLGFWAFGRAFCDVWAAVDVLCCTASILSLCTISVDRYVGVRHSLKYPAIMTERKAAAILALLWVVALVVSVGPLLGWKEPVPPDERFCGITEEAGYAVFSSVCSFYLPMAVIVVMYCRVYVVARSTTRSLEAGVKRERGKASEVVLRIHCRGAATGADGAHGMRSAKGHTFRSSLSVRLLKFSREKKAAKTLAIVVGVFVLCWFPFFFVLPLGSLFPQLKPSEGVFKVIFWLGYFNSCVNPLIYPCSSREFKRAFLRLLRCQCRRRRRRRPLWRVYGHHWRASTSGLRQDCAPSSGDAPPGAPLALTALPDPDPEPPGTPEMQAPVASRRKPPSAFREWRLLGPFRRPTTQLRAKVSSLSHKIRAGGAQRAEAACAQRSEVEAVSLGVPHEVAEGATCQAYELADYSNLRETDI
Description: Compounds were incubated with 0.6 nM [3H]Prazosin for 60 min at 25° C. Non-specific binding was estimated in the presence of 10 μM phentolamine. Receptor proteins were filtered and washed, the filters were then counted to determine [3H]Prazosin specifically bound. Compounds were screened at 1 μM or lower, using 1% DMSO as vehicle. Biochemical assay results are presented as the percent inhibition of specific binding in Table 2.

[2] = target: T2, rat adrenergic α1B receptor (Rattus norvegicus, UniProt P15823); assay: Radioligand binding, adrenergic α1B receptor ([3H]Prazosin); conditions: 0.1 μM compound, Wistar rat liver, read-out: Percentage inhibition of ligand binding, Adrenergic α1B
T2 construct: rat adrenergic α1B receptor obtained from Wistar Rat liver; from tissue; host or cells: Wistar rat liver
T2 sequence (P15823 1-515): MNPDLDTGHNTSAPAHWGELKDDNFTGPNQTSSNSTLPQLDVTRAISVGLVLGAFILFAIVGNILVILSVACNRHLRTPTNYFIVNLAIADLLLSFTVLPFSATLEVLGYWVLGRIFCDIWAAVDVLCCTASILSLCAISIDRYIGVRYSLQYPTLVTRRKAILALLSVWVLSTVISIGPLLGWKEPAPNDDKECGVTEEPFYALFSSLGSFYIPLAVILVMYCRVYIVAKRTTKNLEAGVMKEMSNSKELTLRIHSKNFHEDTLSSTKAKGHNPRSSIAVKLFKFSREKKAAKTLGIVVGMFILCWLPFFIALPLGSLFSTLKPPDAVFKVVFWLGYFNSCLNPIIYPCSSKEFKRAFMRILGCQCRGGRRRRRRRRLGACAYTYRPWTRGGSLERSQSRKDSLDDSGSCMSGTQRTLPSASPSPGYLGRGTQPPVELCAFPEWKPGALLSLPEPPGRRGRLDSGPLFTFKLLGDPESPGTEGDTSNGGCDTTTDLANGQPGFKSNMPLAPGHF
Description: To evaluate in radioligand binding assays the activity of compounds, rat adrenergic α1B receptor obtained from Wistar Rat liver (Garcia-S' ainz, J. et al, Biochem. Biophys. Res. Commun. 186:760, 1992; Michel, A. et al, Br. J. Pharmacol. 98:883, 1989) in a modified Tris-HCl buffer (50 mM Tris-HCl buffer, pH 7.4, 0.5 mM EDTA) was used. Compounds were incubated with 0.25 nM [^3H]Prazosin for 60 min at […]. Non-specific binding was estimated in the presence of 10 μM phentolamine. Receptor proteins were filtered and washed, the filters were then counted to determine [^3H]Prazosin specifically bound. Compounds were screened at 1 μM or lower, using 1% DMSO as vehicle. Compounds were tested in this biochemical assay and percent inhibition of specific binding was determined. Biochemical assay results are presented as the percent inhibition of specific binding in Table 2.

[3] = target: T3, human recombinant adrenergic α2A receptor (Homo sapiens, UniProt P08913); assay: Radioligand binding, adrenergic α2A receptor ([3H]MK-912); conditions: 0.1 μM compound; Sf9 cells; 1 nM [3H]MK-912; read-out: Percentage inhibition of ligand binding, Adrenergic α2A
T3 construct: expressed in transfected cells; host or cells: insect Sf9 cells
T3 sequence (P08913 1-465): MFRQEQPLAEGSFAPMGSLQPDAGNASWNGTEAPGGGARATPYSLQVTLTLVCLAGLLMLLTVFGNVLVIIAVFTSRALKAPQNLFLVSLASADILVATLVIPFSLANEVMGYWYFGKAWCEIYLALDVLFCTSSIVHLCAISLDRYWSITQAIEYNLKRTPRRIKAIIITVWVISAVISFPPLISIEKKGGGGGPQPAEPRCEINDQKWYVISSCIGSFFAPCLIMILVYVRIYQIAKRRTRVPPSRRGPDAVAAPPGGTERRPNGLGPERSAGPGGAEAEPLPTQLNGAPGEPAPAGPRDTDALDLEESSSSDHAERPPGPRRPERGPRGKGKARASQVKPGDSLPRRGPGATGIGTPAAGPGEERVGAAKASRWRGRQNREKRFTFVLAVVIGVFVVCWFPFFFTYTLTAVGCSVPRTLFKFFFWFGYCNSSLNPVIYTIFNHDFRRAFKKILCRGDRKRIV
Description: To evaluate in radioligand binding assays the activity of compounds, human recombinant adrenergic α2A receptor expressed in insect Sf9 cells (Uhlen, S. et al, J. Pharmacol. Exp. Ther. 271:1558, 1994) in a modified Tris-HCl buffer (50 mM Tris-HCl, pH 7.4, 12.5 mM MgCl2, 2 mM EDTA) was used. Compounds were incubated with 1 nM [^3H]MK-912 for 60 min at 25° C. MK912 is (2S-trans)-1,3,4,5′,6,6′,7,12b-octahydro-1′,3′-dimethyl-spiro[2H-benzofuro[2,3-a]quinolizine-2,4′(1′H)-pyrimidin]-2′(3′H)-one hydrochloride Non-specific binding was estimated in the presence of 10 μM WB-4101 (2-(2,6-Dimethoxyphenoxyethyl)aminoethyl-1,4-benzodioxane hydrochloride). Receptor proteins were filtered and washed, the filters were then counted to determine [^3H]MK-912 specifically bound. Compounds were screened at 1 μM or lower, using 1% DMSO as vehicle. Compounds were tested in this biochemical assay and percent inhibition of specific binding was determined. Biochemical assay results are presented as the percent inhibition of specific binding in Table 2.

[4] = target: T4, human recombinant adrenergic α2B receptor (Homo sapiens, UniProt P18089); assay: Radioligand binding, adrenergic α2B receptor ([3H]Rauwolscine); conditions: 0.1 μM compound, CHO-K1 cells, read-out: Percentage inhibition of ligand binding, Adrenergic α2B
T4 construct: expressed in transfected cells; host or cells: CHO-K1
T4 sequence (P18089 1-450): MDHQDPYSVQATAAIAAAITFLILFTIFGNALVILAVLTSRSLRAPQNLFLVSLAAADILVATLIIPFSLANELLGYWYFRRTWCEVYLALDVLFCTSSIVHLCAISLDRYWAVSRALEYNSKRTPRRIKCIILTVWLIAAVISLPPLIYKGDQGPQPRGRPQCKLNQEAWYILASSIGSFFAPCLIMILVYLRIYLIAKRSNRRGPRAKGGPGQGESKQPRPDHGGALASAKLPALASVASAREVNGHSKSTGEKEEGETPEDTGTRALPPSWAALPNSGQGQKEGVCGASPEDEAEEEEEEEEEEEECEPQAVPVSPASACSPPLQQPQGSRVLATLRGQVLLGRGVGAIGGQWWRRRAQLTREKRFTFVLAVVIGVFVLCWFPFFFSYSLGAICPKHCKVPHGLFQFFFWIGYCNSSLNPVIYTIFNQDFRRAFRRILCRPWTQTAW
Description: To evaluate in radioligand binding assays the activity of compounds, human recombinant adrenergic α2B receptor expressed in Chinese hamster ovary (CHO) K1 cells (Uhlen, S. et al, Eur. J. Pharmacol. 343(1):93, 1998) in a modified Tris-HCl buffer (50 mM Tris-HCl, pH 7.4, 12.5 mM MgCl2, 1 mM EDTA, 0.2% BSA) was used. Compounds were incubated with 2.5 nM [^3H]Rauwolscine for 60 min at 25° C. Non-specific binding was estimated in the presence of 10 μM Prazosin. Receptor proteins were filtered and washed, the filters were then counted to determine [^3H]Rauwolscine specifically bound. Compounds were screened at 1 μM or lower, using 1% DMSO as vehicle. Compounds were tested in this biochemical assay and percent inhibition of specific binding was determined. Biochemical assay results are presented as the percent inhibition of specific binding in Table 2.

inhibition at 0.1 µM [1] [%]	inhibition at 0.1 µM [2] [%]	inhibition at 0.1 µM [3] [%]	inhibition at 0.1 µM [4] [%]	SMILES
18	16	28	1	Cc1ccc2c(c1)c1c(n2-c2cscc2-c2cncc3ccccc23)CCN(C)C1 [Compound 34]
68	67	84	95	Cc1ccc2c(c1)c1c(n2-c2cscc2-c2ccc(F)nc2)CCN(C)C1 [Compound 35]
26	13	90	79	Cc1csc(-c2ccccc2-n2c3c(c4cc(C)ccc42)CN(C)CC3)c1 [Compound 36]
32	31	32	57	Cc1ccc2c(c1)c1c(n2-c2ccc3cnccc3c2)CCN(C)C1 [Compound 38]
62	67	98	70	Cc1ccc2c(c1)c1c(n2-c2cscc2-c2sccc2C)CCN(C)C1 [Compound 39]
79	43	91	89	Cc1ccc2c(c1)c1c(n2-c2cscc2-c2cnc(N(C)C)nc2)CCN(C)C1 [Compound 40]
76	77	87	70	Cc1ccc2c(c1)c1c(n2-c2cscc2-c2cccc3[nH]ncc23)CCN(C)C1 [Compound 41]
-3	10	17	7	Cc1ccc2c(c1)c1c(n2-c2cccc(-c3cnc(N(C)C)nc3)c2)CCN(C)C1 [Compound 42, 5-(3-(2,8-dimethyl-3,4-dihydro-1H-pyrido[4,3-b]indol-5(2H)-yl)phenyl)-N,N-dimethylpyrimidin-2-amine]
3	9	31	6	Cc1ccc2c(c1)c1c(n2-c2cccc(-c3sccc3C)c2)CCN(C)C1 [Compound 43, 2,8-dimethyl-5-(3-(3-methylthiophen-2-yl)phenyl)-2,3,4,5-tetrahydro-1H-pyrido[4,3-b]indole]
2	0	29	12	Cc1ccc2c(c1)c1c(n2-c2cccc(-c3ccc(F)nc3)c2)CCN(C)C1 [Compound 44, 5-(3-(6-fluoropyridin-3-yl)phenyl)-2,8-dimethyl-2,3,4,5-tetrahydro-1H-pyrido[4,3-b]indole]
1	1	12	6	CC(=O)Nc1ccc(-c2cccc(-n3c4c(c5cc(C)ccc53)CN(C)CC4)c2)cn1 [Compound 45, N-(5-(3-(2,8-dimethyl-3,4-dihydro-1H-pyrido[4,3-b]indol-5(2H)-yl)phenyl)pyridin-2-yl)acetamide]
8	-7	48	21	Cc1ccc2c(c1)c1c(n2-c2cccc(-c3cnn(C)c3)c2)CCN(C)C1 [Compound 46, 2,8-dimethyl-5-(3-(1-methyl-1H-pyrazol-4-yl)phenyl)-2,3,4,5-tetrahydro-1H-pyrido[4,3-b]indole]
3	5	62	6	Cc1cc(C)c2c(c1)c1c(n2-c2cccc3ncccc23)CCN(C)C1 [Compound 47]
-5	1	19	16	Cc1cc(C)c2c(c1)c1c(n2-c2ccc3ncccc3c2)CCN(C)C1 [Compound 48]
14	12	-3	31	Cc1ccc2c(c1)c1c(n2-c2cscc2-c2ccc(O)nc2)CCN(C)C1 [Compound 49]
